± gives the expanded uncertainty stated by the source.
Experiments:
[1] = xn = mol fraction of the nth substance listed; settings: 94.64 kPa, Liquid, Vibrating tube method, x1 = 1
[2] = refractive index (Na D-line) (dimensionless); xn = mol fraction of the nth substance listed; settings: 94.64 kPa, Liquid, Standard Abbe refractometry, x1 = 1
[3] = refractive index (other wavelength) (dimensionless); settings: 94.64 kPa, Liquid, Standard Abbe refractometry

In the case of `CC(O)CO` (stereo not given) [1,2-propanediol] + OCCCO, the mass density ([1]; 293.15 K) is reported as 1036.25 ± 3.2 kg/m3, the mass density ([1]; 298.15 K) is reported as 1032.61 ± 3.2 kg/m3 and the mass density ([1]; 303.15 K) is reported as 1028.93 ± 3.2 kg/m3. For the same molecule, the mass density ([1]; 308.15 K) was 1025.19 ± 3.2 kg/m3, the mass density ([1]; 313.15 K) was 1021.42 ± 3.2 kg/m3 and the mass density ([1]; 318.15 K) was 1017.65 ± 3.2 kg/m3. It also gave a refractive index ([2]; 293.15 K) of 1.43219 ± 0.002, a refractive index ([2]; 298.15 K) of 1.4303 ± 0.002 and a refractive index ([2]; 303.15 K) of 1.42921 ± 0.002. It also gave a refractive index ([2]; 308.15 K) of 1.42746 ± 0.002, a refractive index ([2]; 313.15 K) of 1.42566 ± 0.002 and a refractive index ([2]; 318.15 K) of 1.42386 ± 0.002.

For `OCCCO` [propan-1,3-diol], the refractive index ([3]; 293.15 K, Wavelength=404.7 nm) was 1.45177 ± 0.002, the refractive index ([3]; 293.15 K, Wavelength=435.8 nm) was 1.44842 ± 0.002 and the refractive index ([3]; 293.15 K, Wavelength=486.1 nm) was 1.4444 ± 0.002. The refractive index ([3]; 293.15 K, Wavelength=546.1 nm) was 1.44112 ± 0.002, the refractive index ([3]; 293.15 K, Wavelength=587.6 nm) was 1.43939 ± 0.002 and the refractive index ([3]; 293.15 K, Wavelength=632.8 nm) was 1.43781 ± 0.002. The refractive index ([3]; 293.15 K, Wavelength=644 nm) was 1.43746 ± 0.002, the refractive index ([3]; 293.15 K, Wavelength=706.5 nm) was 1.43577 ± 0.002 and the refractive index ([3]; 298.15 K, Wavelength=404.7 nm) was 1.45037 ± 0.002. For the same molecule, the refractive index ([3]; 298.15 K, Wavelength=435.8 nm) was 1.447 ± 0.002, the refractive index ([3]; 298.15 K, Wavelength=486.1 nm) was 1.44301 ± 0.002 and the refractive index ([3]; 298.15 K, Wavelength=546.1 nm) was 1.43975 ± 0.002. For the same molecule, the refractive index ([3]; 298.15 K, Wavelength=587.6 nm) was 1.43802 ± 0.002, the refractive index ([3]; 298.15 K, Wavelength=632.8 nm) was 1.43645 ± 0.002 and the refractive index ([3]; 298.15 K, Wavelength=644 nm) was 1.43611 ± 0.002. For the same molecule, the refractive index ([3]; 298.15 K, Wavelength=706.5 nm) was 1.43441 ± 0.002, the refractive index ([3]; 303.15 K, Wavelength=404.7 nm) was 1.44902 ± 0.002 and the refractive index ([3]; 303.15 K, Wavelength=435.8 nm) was 1.44566 ± 0.002. For the same molecule, the refractive index ([3]; 303.15 K, Wavelength=486.1 nm) was 1.44168 ± 0.002, the refractive index ([3]; 303.15 K, Wavelength=546.1 nm) was 1.43844 ± 0.002 and the refractive index ([3]; 303.15 K, Wavelength=587.6 nm) was 1.43671 ± 0.002. It also gave a refractive index ([3]; 303.15 K, Wavelength=632.8 nm) of 1.43514 ± 0.002, a refractive index ([3]; 303.15 K, Wavelength=644 nm) of 1.4348 ± 0.002 and a refractive index ([3]; 303.15 K, Wavelength=706.5 nm) of 1.43312 ± 0.002. It also gave a refractive index ([3]; 308.15 K, Wavelength=404.7 nm) of 1.44755 ± 0.002, a refractive index ([3]; 308.15 K, Wavelength=435.8 nm) of 1.44419 ± 0.002 and a refractive index ([3]; 308.15 K, Wavelength=486.1 nm) of 1.44027 ± 0.002. The refractive index ([3]; 308.15 K, Wavelength=546.1 nm) was 1.43699 ± 0.002, the refractive index ([3]; 308.15 K, Wavelength=587.6 nm) was 1.43529 ± 0.002 and the refractive index ([3]; 308.15 K, Wavelength=632.8 nm) was 1.43375 ± 0.002. For the same molecule, the refractive index ([3]; 308.15 K, Wavelength=644 nm) was 1.4334 ± 0.002, the refractive index ([3]; 308.15 K, Wavelength=706.5 nm) was 1.4317 ± 0.002 and the refractive index ([3]; 313.15 K, Wavelength=404.7 nm) was 1.44615 ± 0.002. It also gave a refractive index ([3]; 313.15 K, Wavelength=435.8 nm) of 1.4428 ± 0.002, a refractive index ([3]; 313.15 K, Wavelength=486.1 nm) of 1.43888 ± 0.002 and a refractive index ([3]; 313.15 K, Wavelength=546.1 nm) of 1.43562 ± 0.002. The refractive index ([3]; 313.15 K, Wavelength=587.6 nm) was 1.43392 ± 0.002, the refractive index ([3]; 313.15 K, Wavelength=632.8 nm) was 1.43238 ± 0.002 and the refractive index ([3]; 313.15 K, Wavelength=644 nm) was 1.43203 ± 0.002. It also gave a refractive index ([3]; 313.15 K, Wavelength=706.5 nm) of 1.43035 ± 0.002, a refractive index ([3]; 318.15 K, Wavelength=404.7 nm) of 1.44474 ± 0.002 and a refractive index ([3]; 318.15 K, Wavelength=435.8 nm) of 1.44141 ± 0.002. The refractive index ([3]; 318.15 K, Wavelength=486.1 nm) was 1.43754 ± 0.002, the refractive index ([3]; 318.15 K, Wavelength=546.1 nm) was 1.43429 ± 0.002 and the refractive index ([3]; 318.15 K, Wavelength=587.6 nm) was 1.43261 ± 0.002. It also gave a refractive index ([3]; 318.15 K, Wavelength=632.8 nm) of 1.43109 ± 0.002, a refractive index ([3]; 318.15 K, Wavelength=644 nm) of 1.43075 ± 0.002 and a refractive index ([3]; 318.15 K, Wavelength=706.5 nm) of 1.42908 ± 0.002.

Source: the NIST ThermoML archive (doi:10.1016/j.jct.2016.01.019)
